Literature values as cited in patent US20170119791A1, “METHODS AND COMPOSITIONS FOR DERMATOLOGICAL USE COMPRSING BETAMETHASONE AND BIOPOLYMERS” (APEX LABORATORIES PRIVATE LIMITED, priority 2015, published 2017).
Where two headings read alike, the source gives them in different places.

| Solubility (in acetone) | Solubility (in alcohol) | Solubility (in water) | Solubility (in benzene) | Solubility (in chloroform) | Solubility (in ether) | SMILES |
| --- | --- | --- | --- | --- | --- | --- |
| freely soluble | sparingly soluble | insoluble | – | – | – | CCC(=O)OCC(=O)[C@@]1(OC(=O)CC)[C@@H](C)C[C@H]2[C@@H]3CCC4=CC(=O)C=C[C@]4(C)[C@@]3(F)[C@@H](O)C[C@@]21C [Betamethasone dipropionate, 9-fluoro-11β, 17,21-trihydroxy-16β-methylpregna-1,4-diene-3,20-dione 17,21-dipropionate] |
| freely soluble | soluble | practically insoluble | slightly soluble | freely soluble | slightly soluble | CCCCC(=O)O[C@]1(C(=O)CO)[C@@H](C)C[C@H]2[C@@H]3CCC4=CC(=O)C=C[C@]4(C)[C@@]3(F)[C@@H](O)C[C@@]21C [Betamethasone valerate, 9-Fluoro-11β, 17,21-trihydroxy-16β-methylpregna-1,4-diene-3,20-dione 17-valerate] |
